In general, IC50 refers to the concentration that inhibits the measured activity by half. A word on the CC50: it is the concentration that lowers cell viability or growth by half.

This is an account of results in patent US20250179033A1 (priority 2021, published 2025).

SMILES strings stand for the structures. Where two headings read alike, the source gives them in different places.

One data set has as its system HIV-1 IIIB (wild-type). In words: HIV inhibition assay in TZM-bl cells, wild-type. The note with it: Human immunodeficiency virus 1, IIIB; for IC50: read-out: IC50 (TZM, WT). Type of data set: cell-based. On the procedure: (§1) Cells and virus culture: TZM-bl cells (42), HIV-1 IIIB virus (43-45) and HIV-1 IIIB (A17 variant) virus (46) as well are the NNRTI resistant mutants (strain NL4-3) (47) were obtained from the NIH HIV Reagent Program. H9 [derivative of HuT 78]cells (ATCC® HTB176™) were obtained from the American Type Culture Collection (Manassas, Virginia, United States of America). These viruses were grown in H9 cells to high titer, which was tested using a HIV p24 (high sensitivity) The detection kit used was sold under the tradename ALPHALISA® Detection Kit (PerkinElmer, Waltham, Massachusetts, United States of America). The viruses were concentrated using Lenti-X Concentrator (Takara Bio USA, Inc., Mountain View, California, United States of America). Infections of TZM-bl cells with either virus was facilitated with 15 μg/mL DEAE-dextran.
(§2) Compounds were serially diluted starting with 10 mM stocks in DMSO. DMSO concentrations were kept the same for all dilutions used within an assay (either 0.005% or 0.05% depending on highest concentration used). Duplicate 96-well plates were set up with 25 μL compound dilution, 25 μL virus, and 50 μL TZM-bl cells (2×10^5/mL) with DEAE-dextran and incubated at 37° C. 5% CO2 for 48 hr. All compounds were tested in triplicate, with single wells of efavirenz dilutions on each plate. All plates had 3-5 control wells without compound, 1 control well with no cells, and 1 control well with a highly toxic level of DMSO (9%). Inhibition assays were set up in clear tissue-culture treated plates with lysates moved to black assay plates or were set up in black tissue culture-treated plates. Medium was removed and the cells were lysed with Glo Lysis Buffer (Promega, Madison, Wisconsin, United States of America). Luciferase Assay System reagent (Promega, Madison, Wisconsin, United States of America) was added to cells and relative light units (RLU) was measured using an EnSpire instrument (PerkinElmer, Waltham, Massachusetts, United States of America). Toxicity assays were set up in clear tissue culture-treated plates. CellTiter-Blue Cell Viability Assay reagent (Promega) was added to the wells after 46 hr incubation, followed by 2 hr incubation. Sodium lauryl sulfate was added to 1.5% to stop the reaction and the plates were measured for fluorescence (560 nmEx/590 nmEm) using an EnSpire instrument (PerkinElmer, Waltham, Massachusetts, United States of America).

Data set [1] concerns HIV-1 IIIB A17 variant (Y181C/K103N). In words: HIV inhibition assay in TZM-bl cells, A17 variant. The note with it: Human immunodeficiency virus 1, IIIB, TZM-bl. Type of data set: cell-based. On the procedure: as §1, §2
Data set [2] is described as follows: Toxicity assay in TZM-bl cells. Type of data set: cell-based. The note with it: human. On the procedure:
as §2

Another data set has as its system TZM-bl cells. The experiment in a line: Toxicity assay in TZM-bl cells. Type of data set: cell-based. The note with it: for Quantitative Cell Toxicity: human, 48 h. On the procedure:
as §2

For data set [3], the target named is T1, HIV I reverse transcriptase (Human immunodeficiency virus type 1 group M subtype B, UniProt P03366).
T1 construct: purchased Roche
The experiment in a line: Reverse transcriptase inhibition assay (Roche kit, ELISA). Type of data set: biochemical. On the procedure: NNRTI assay methods: Inhibition of HIV I reverse transcriptase was assessed via a kit from Roche (Indianapolis-Marion County, Indiana, United States of America) using the manufacture's protocol (500 μM final reverse transcriptase reaction amount). […] DMSO concentrations were kept the same for all dilutions used within an assay (0.05%). Final compound concentrations ranged from 5000 nM-0.05 nM with 2-fold serial dilutions. 96-well plates were set up with 20 μL compound dilution, 20 μL reverse transcriptase, and 20 μL template/nucleotides and incubated at 37° C. 5% CO2 for 1 hr in a reaction plate. 50 μL of each reaction was then transferred to a streptavidin conjugated 96-well plate and an ELISA assay was run based on manufacture's protocol. All compounds were tested in sextuplicate, with single wells of efavirenz dilutions on each plate.
A general note: In an ELISA, binding on a coated surface is turned into a signal by an enzyme label.

Data set [4] has as its system primary mouse neuron cultures. In words: Calcium imaging in primary neurons. Type of data set: cell-based. The note with it: 1 μM. On the procedure:
The direct effects of the antiretroviral compounds were tested on primary rat and mouse neurons cultured on coverslips. Neurons at 14-18 days in vitro were loaded with the calcium indicator, Fluo-4 AM (2 μM, Molecular Probes, Inc., Eugene, Oregon, United States of America) in aCSF (aCSF: NaCl […], KCl 5.0 mM, CaCl2 2.3 mM, MgCl2 1.3 mM, glucose 20 mM). After 30 minutes of dye loading, the coverslip was transferred to a specialized stage for imaging. Cells were maintained in aCSF and time-lapse digital images were automatically captured on an Olympus IX71 microscope using software sold under the tradename METAMORPH® (Molecular Devices, San Jose, California, United States of America). Images were captured with a 40 msec exposure every 6 seconds for 6 minutes to assess acute effects and every minute for 60 minutes to assess delayed effects. Three pre-stimulation measurements were taken to establish basal levels of fluorescence at the beginning of each experiment. After collection of the third image, neurons the antiretroviral compound or vehicle diluted from the stock vial into aCSF was added to the neurons at the indicated final concentration. Baseline fluorescence was subtracted to correct for cell-to-cell differences in dye loading and intrinsic fluorescence. Changes in fluorescence at each time point were averaged across all cells from at least triplicate runs to provide an indication of the “typical” response. In some cases, individual cell response patterns are shown where the average masked important cell-specific profiles. All compounds were tested at 1 μM.

Setting [5] is: Table 3, TZM-bl, ± SEM, minimum 6 replicates.
Where [6] appears, read: read-out: IC50 (TZM, A17), Table 3, TZM-bl, ± SEM, minimum 6 replicates.
[7] abbreviates: read-out: IC50 (TZM, A17), Table 4, TZM-bl.

In the case of `N#Cc1ccc2c(S(=O)(=O)n3nc(Nc4ccc(C#N)c(C#N)c4)nc3N)cccc2c1` [Compound 14, 4-[[5-amino-1-[(6-cyano-1-naphthyl)sulfonyl]-1,2,4-triazol-3-yl]amino]phthalonitrile], the IC50 was determined as 0.684 ± 0.077 nM in the data set on HIV-1 IIIB (wild-type) (setting [5]); 0.318 nM with HIV-1 IIIB (wild-type) (Table 4, TZM-bl); 37.2 ± 15.4 nM in data set [1] (setting [6]); 31.7 nM in data set [1] (setting [7]). Also, the CC50 at 48 h in data set [2] turned out to be 31800 nM. Besides, the “Qualitative Cell Toxicity within inhibition range” value in the data set on TZM-bl cells was “None”. In the data set on TZM-bl cells, the “Quantitative Cell Toxicity” value was determined as 1350 nM. In data set [3], this molecule displayed an EC50 of 1350 nM.
Turning to `N#C/C=C/c1ccc2c(S(=O)(=O)n3nc(Nc4ccc(CC#N)cc4)nc3N)cccc2c1` [Compound 21, 3-[5-[[5-amino-3-[4-(cyanomethyl)anilino]-1,2,4-triazol-1-yl]sulfonyl]-2-naphthyl]prop-2-enenitrile], the concentration for half-maximal inhibition (IC50) in the data set with HIV-1 IIIB (wild-type) (setting [5]) came out at 0.255 ± 0.035 nM; in the data set with HIV-1 IIIB (wild-type) (Table 4, TZM-bl), 0.228 nM; in data set [1] (setting [6]) it was 5.42 ± 1.39 nM; in data set [1] (setting [7]) it was 13.8 nM. This molecule also showed a CC50 at 48 h in data set [2] of 747 nM. For the same molecule, in the data set with TZM-bl cells, the “Qualitative Cell Toxicity within inhibition range” value was “None”. Also, the “Quantitative Cell Toxicity” value in the data set on TZM-bl cells was determined as 747 nM. In data set [3], this molecule had an EC50 of 10900 nM.
Consider `O=C1Nc2ccc(Cl)cc2[C@@](C#CC2CC2)(C(F)(F)F)O1` [Efavirenz, efavirenz], for which the IC50 in the data set on HIV-1 IIIB (wild-type) (Table 4, TZM-bl) is 0.658 nM. Also, in data set [1] (setting [7]), the concentration for half-maximal inhibition (IC50) came to 17 nM. Further, the CC50 at 48 h in data set [2] (TZM-bl cells, Table 4, TZM-bl, read-out: CC50 (TZM)) was > 100000 nM. In data set [4], the “acute spike frequency / acute signaling” value was “trend towards a reduced acute signaling”; the delayed spike frequency entry was “increase”; the total calcium accumulation entry is reported as “most dramatic increase”; the “toxic effects by calcium imaging, overall” value is recorded as “seemed to have some toxic effects”.
Regarding `Cc1cc(/C=C/C#N)cc(C)c1Nc1ccnc(Nc2ccc(C#N)cc2)n1` [Rilpivirine, rilpivirine, reference compound], the IC50 in the data set on HIV-1 IIIB (wild-type) (Table 4, TZM-bl) was 0.351 nM; in data set [1] (setting [7]), 0.817 nM; in data set [3], 1180 nM. Besides, the EC50 turned out to be 0.35 nM in the data set with HIV-1 IIIB (wild-type) (text b494, FIG. 2F, read-out: antiviral activity against wildtype, EC50); 1.58 nM in data set [1] (read-out: activity against the A17 double mutant (Y181C/K103N), EC50); 376 nM in data set [3]. In data set [2], the CC50 at 48 h turned out to be 112000 nM. The “acute spike frequency / acute signaling” value in data set [4] is “decrease”.
